Earlier results, collected in patent US6054466A, “Inhibitors of farnesyl-protein transferase” (Merck & Co., Inc., priority 1998, dated 2000).

Columns and labels:
[1] = tested on: farnesyl-protein transferase; details: via HMG-CoA reductase inhibition
Ras processing = details: by inhibiting the rate-limiting step in the isoprenoid biosynthetic pathway

Compound	Indirect inhibition of farnesyl-protein transferase in vivo [1]	Block of Ras processing in cells (Ras processing)
CC[C@H](C)C(=O)O[C@H]1CCC=C2C=C[C@H](C)[C@H](CC[C@@H]3C[C@@H](O)CC(=O)O3)[C@H]21 [compactin]	Indirect inhibition	–
CC[C@H](C)C(=O)O[C@H]1C[C@@H](C)C=C2C=C[C@H](C)[C@H](CC[C@@H]3C[C@@H](O)CC(=O)O3)[C@H]21 [lovastatin]	Indirect inhibition	blocks Ras processing in cells
